From ChEMBL document CHEMBL1157477, “Cembrane diterpenoids from the taiwanese soft coral Sarcophyton stolidotum” (2008)
In brackets after ≈: the same amount, converted by molar mass. Activity calls are given as the source filed them. No cut-off for these calls is given here.

How the values were obtained:
Assay type in all cases: functional
Daoy = assay: Cytotoxicity against human Daoy cells
HeLa = assay: Cytotoxicity against human HeLa cells at 10 ug/ml by MTT assay
WiDr = assay: Cytotoxicity against human WiDr cells at 10 ug/ml by MTT assay

SMILES	Activity (Daoy)	inhibition at 10 µg/mL (HeLa) [%]	inhibition at 10 µg/mL (WiDr) [%]	EC50 (Daoy; read-out: ED50 (the source's name)) [µg/mL]
C/C1=C/CC/C(C)=C/C(=O)CC2=C[C@@H](OC2=O)[C@@H](C(C)C)CC1=O [SARCOSTOLIDE A]	inactive	22.3	20	
C/C1=C/C(=O)CC2=C[C@@H](OC2=O)[C@@H](C(C)C)CC(=O)/C(C)=C/CC1 [SARCOSTOLIDE B]	inactive	5.88	8.31	
C/C1=C\C(=O)CC2=C[C@@H](OC2=O)[C@@H](C(C)C)CC(=O)/C(C)=C/CC1 [SARCOSTOLIDE C]	inactive	1.65	19.4	
C/C1=C/C(=O)CC2=C[C@@H](OC2=O)[C@H](C(C)C)CC(=O)/C(C)=C/CC1 [SARCOSTOLIDE D]	inactive	11.1	29.1	
C/C1=C/C=C/[C@H](C)C(=O)C[C@H](C(C)C)[C@H]2C=C(CC(=O)C1)C(=O)O2 [SARCOSTOLIDE E]		16.8	27.5	5.5 (≈ 16.6 µM)
C/C1=C/C/C=C(\C)C(=O)C[C@H](C(C)C)[C@H]2C=C(CC(=O)C1)C(=O)O2 [SARCOSTOLIDE F]	inactive	7.32	29.8	
C/C1=C\CC[C@@H](C)CC(=O)CC2=C[C@@H](OC2=O)[C@@H](C(C)C)CC1=O [SARCOSTOLIDE G]	inactive	18.4	20.1	
